Tests used:
IKZF3 = IKZF3 (Homo sapiens (Human), UniProt Q96SW2+Q9UKT9); assay: Western blot, substrate protein expression in hPBMC: IKZF3; assay type: cell-based; details: hPBMC, compound 500 nM, 24 hours, Western blot
Procedure, shortened: (§1)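 hPBMC, 1×10^6 cells/mL, 24 h compound exposure; RIPA lysis, BCA protein assay, SDS-PAGE, NC membrane immunoblot. Densitometry vs internal control → % protein remaining; degradation % = 100% − remaining; DC50 = conc. at 50% of DMSO band signal.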

IKZF1 = IKZF1 (Homo sapiens (Human), UniProt Q13422+Q96SW2); assay: Western blot, substrate protein expression in hPBMC: IKZF1; assay type: cell-based; details: hPBMC, compound 500 nM, 24 hours, Western blot
IKZF1, sequence (Q13422 whole entry): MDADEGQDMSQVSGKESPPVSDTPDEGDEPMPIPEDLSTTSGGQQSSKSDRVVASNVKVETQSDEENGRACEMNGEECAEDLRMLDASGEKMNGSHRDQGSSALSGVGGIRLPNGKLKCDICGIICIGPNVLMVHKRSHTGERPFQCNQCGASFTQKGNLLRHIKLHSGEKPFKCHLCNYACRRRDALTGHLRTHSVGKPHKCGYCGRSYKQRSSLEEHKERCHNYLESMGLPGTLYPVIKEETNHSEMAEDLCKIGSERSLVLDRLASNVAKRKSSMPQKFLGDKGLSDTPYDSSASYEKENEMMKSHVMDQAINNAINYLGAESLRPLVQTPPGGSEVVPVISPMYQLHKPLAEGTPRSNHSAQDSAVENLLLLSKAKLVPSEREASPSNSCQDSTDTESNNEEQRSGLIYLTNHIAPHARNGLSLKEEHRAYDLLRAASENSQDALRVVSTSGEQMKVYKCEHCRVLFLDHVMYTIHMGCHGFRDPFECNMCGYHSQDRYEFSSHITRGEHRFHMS
IKZF1, sequence (Q96SW2 whole entry): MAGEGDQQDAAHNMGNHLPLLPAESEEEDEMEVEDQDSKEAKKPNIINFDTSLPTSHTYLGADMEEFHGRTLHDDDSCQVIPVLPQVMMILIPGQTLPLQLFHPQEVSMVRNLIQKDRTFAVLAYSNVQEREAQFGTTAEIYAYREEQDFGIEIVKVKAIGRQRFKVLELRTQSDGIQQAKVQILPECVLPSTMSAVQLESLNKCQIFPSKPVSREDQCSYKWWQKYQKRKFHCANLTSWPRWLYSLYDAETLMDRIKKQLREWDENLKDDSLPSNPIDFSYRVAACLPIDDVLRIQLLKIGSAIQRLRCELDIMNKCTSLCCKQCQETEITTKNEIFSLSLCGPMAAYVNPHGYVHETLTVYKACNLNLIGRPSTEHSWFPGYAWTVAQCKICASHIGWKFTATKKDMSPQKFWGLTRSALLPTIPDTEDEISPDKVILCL
IKZF1, sequence (Q16531 whole entry partner): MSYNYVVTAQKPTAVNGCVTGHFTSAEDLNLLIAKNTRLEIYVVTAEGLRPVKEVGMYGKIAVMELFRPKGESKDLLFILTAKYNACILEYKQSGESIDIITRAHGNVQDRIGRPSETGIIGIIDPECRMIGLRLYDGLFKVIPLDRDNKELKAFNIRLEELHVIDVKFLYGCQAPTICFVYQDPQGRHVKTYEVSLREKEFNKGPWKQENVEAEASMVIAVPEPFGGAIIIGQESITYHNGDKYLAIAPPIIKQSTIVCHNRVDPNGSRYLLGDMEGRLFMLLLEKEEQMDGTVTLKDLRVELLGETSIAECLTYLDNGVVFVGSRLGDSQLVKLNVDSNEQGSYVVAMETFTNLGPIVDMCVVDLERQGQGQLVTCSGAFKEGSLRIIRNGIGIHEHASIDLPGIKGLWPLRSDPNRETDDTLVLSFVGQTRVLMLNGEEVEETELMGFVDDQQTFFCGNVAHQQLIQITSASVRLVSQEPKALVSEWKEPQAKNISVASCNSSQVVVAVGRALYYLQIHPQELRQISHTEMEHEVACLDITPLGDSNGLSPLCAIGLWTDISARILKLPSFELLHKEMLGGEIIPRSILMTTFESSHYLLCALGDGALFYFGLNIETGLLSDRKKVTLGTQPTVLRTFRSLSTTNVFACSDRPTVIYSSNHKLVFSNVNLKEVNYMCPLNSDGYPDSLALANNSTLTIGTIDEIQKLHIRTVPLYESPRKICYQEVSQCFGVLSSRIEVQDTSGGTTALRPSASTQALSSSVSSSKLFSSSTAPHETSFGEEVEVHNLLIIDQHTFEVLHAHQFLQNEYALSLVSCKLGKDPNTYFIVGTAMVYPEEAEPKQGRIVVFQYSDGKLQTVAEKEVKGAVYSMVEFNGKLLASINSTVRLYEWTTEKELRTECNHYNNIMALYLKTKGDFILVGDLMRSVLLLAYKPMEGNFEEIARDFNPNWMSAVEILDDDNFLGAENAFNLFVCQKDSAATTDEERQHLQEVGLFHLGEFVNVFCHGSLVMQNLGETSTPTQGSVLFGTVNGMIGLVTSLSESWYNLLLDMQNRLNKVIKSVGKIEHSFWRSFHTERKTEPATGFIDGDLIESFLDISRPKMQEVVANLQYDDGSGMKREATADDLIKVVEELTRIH
Procedure, shortened: as §1

[1] = tested on: MDA-MB-231 cells (human breast adenocarcinoma cells); assay: Tumor cell proliferation inhibition, CCK-8; assay type: cell-based; details: MDA-MB-231 cells, CCK-8, read-out: inhibitory activity (IC50, nM) MDA-MB-231
Procedure, shortened: (§2)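 Growth inhibition is measured by CCK-8 cell viability; IC50 is calculated from the dose–response curve. Compounds are added 24 h after seeding, starting at 10 μM and diluted 5-fold across 10 concentrations.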

[2] = tested on: CAL-62 (human thyroid carcinoma cells); assay: Tumor cell proliferation inhibition, CCK-8; assay type: cell-based; details: CAL-62 cells, CCK-8, read-out: inhibitory activity (IC50, nM) CAL-62
Procedure, shortened: as §2

[3] = tested on: H146 cells (human small cell lung carcinoma cells); assay: Tumor cell proliferation inhibition, CCK-8; assay type: cell-based; details: NCI-H146, H146 cells, CCK-8, read-out: inhibitory activity (IC50, nM) H146
Procedure, shortened: as §2

[4] = tested on: CCRF-CEM (human acute lymphoblastic leukemia T-cells); assay: Tumor cell proliferation inhibition, CCK-8; assay type: cell-based; details: CCRF-CEM cells, CCK-8, read-out: inhibitory activity (IC50, nM) CCRF-CEM
Procedure, shortened: as §2

[5] = tested on: TMD8 cells (human diffuse large B-cell lymphoma cells); assay: Tumor cell proliferation inhibition, CCK-8; assay type: cell-based; details: TMD8 cells, CCK-8, read-out: inhibitory activity (IC50, nM) TMD8
Procedure, shortened: as §2

[6] = tested on: Kasumi-1 (human acute myeloid leukemia cells); assay: Tumor cell proliferation inhibition, CCK-8; assay type: cell-based; details: Kasumi-1 cells, CCK-8, read-out: inhibitory activity (IC50, nM) Kasumi-1
Procedure, shortened: as §2

[7] = tested on: MM.1S cells (human multiple myeloma cells); assay: Tumor cell proliferation inhibition, CCK-8; assay type: cell-based; details: MM1.S, MM.1S cells, CCK-8, read-out: inhibitory activity (IC50, nM) MM.1S
Procedure, shortened: as §2

[8] = tested on: MM.1R cells (dexamethasone-resistant human multiple myeloma cells); assay: Tumor cell proliferation inhibition, CCK-8; assay type: cell-based; details: MM.1R cells, CCK-8, read-out: inhibitory activity (IC50, nM) MM.1R
Procedure, shortened: as §2

[9] = tested on: Jurkat cells (human T-cell leukemia cells); assay: Tumor cell proliferation inhibition, CCK-8; assay type: cell-based; details: Jurkat cells, CCK-8, read-out: inhibitory activity (IC50, nM) Jurkat
Procedure, shortened: as §2

[10] = target: human Cereblon WT GST-tagged protein (Homo sapiens (Human), UniProt Q96SW2); assay: CRBN-binding affinity, HTRF (CEREBLON BINDING kit, CISBIO); details: HTRF inhibitory activity
human Cereblon WT GST-tagged protein, sequence (Q96SW2 whole entry): as the sequence (Q96SW2 whole entry) above
Procedure, shortened: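 Compounds were mixed with GST-tagged human Cereblon WT protein, then with Thalidomide-Red tracer and GST Eu antibody, and binding was read by HTRF. Inhibition rate was calculated from 620 nm emission relative to blank control wells (no protein) and solvent control wells.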

GSPT1 = GSPT1 (Homo sapiens (Human), UniProt P15170+Q96SW2); assay: Western blot, substrate protein expression in hPBMC: GSPT1; assay type: cell-based; details: hPBMC, compound 500 nM, 24 hours, Western blot
GSPT1, sequence (P15170 whole entry): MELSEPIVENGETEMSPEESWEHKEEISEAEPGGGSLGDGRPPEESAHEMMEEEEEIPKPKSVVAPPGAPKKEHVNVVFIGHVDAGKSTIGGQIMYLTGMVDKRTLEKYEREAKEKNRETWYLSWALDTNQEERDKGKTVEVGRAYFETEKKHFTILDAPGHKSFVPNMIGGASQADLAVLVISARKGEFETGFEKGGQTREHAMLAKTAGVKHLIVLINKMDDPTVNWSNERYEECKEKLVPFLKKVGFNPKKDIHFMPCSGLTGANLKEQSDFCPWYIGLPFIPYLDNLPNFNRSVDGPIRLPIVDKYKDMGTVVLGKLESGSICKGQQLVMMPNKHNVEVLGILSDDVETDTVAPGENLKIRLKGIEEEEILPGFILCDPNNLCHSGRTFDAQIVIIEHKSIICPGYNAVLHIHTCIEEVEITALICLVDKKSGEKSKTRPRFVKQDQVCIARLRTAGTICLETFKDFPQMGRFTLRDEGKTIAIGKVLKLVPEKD
GSPT1, sequence (Q96SW2 whole entry): as the sequence (Q96SW2 whole entry) above
GSPT1, sequence (Q16531 whole entry partner): as the sequence (Q16531 whole entry partner) above
Procedure, shortened: as §1

IKZF3, sequence (Q9UKT9 whole entry): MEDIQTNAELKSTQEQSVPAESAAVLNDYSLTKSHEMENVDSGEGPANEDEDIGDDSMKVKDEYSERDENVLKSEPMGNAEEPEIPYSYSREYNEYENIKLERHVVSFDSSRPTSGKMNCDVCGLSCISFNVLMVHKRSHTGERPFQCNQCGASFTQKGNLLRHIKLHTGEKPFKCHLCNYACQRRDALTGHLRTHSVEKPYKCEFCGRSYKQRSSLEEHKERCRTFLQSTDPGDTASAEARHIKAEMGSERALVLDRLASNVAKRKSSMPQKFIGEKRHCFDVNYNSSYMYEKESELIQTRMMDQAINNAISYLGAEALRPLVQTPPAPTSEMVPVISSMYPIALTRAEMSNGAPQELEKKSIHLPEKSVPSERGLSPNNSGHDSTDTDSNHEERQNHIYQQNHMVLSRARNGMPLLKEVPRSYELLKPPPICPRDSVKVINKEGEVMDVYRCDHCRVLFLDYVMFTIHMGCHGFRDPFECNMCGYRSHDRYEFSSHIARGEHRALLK
IKZF3, sequence (Q96SW2 whole entry): as the sequence (Q96SW2 whole entry) above
IKZF3, sequence (Q16531 whole entry partner): as the sequence (Q16531 whole entry partner) above

| Compound | substrate protein remaining % IKZF3 (IKZF3) | substrate protein remaining % IKZF1 (IKZF1) | IC50 [1] [nM] | IC50 [2] [nM] | IC50 [3] [nM] | IC50 [4] [nM] | IC50 [5] [nM] | IC50 [6] [nM] | IC50 [7] [nM] | IC50 [8] [nM] | IC50 [9] [nM] | IC50 [10] [µM] | substrate protein remaining % GSPT1 (GSPT1) |
| --- | --- | --- | --- | --- | --- | --- | --- | --- | --- | --- | --- | --- | --- |
| O=C1CCC(N2Cc3cc(CN4CCN(C(c5cccc(F)c5)c5cccc(F)c5)CC4)c(F)cc3C2=O)C(=O)N1 (stereo not drawn) [GT-03701, 3-(5-((4-(bis(3-fluorophenyl)methyl)piperazin-1-yl)methyl)-6-fluoro-1-oxoisoindolin-2-yl)piperidine-2,6-dione] | A (A represents 0% ≤ substrate protein remaining % ≤ 50%) | A (A represents 0% ≤ substrate protein remaining % ≤ 50%) | 10 to 50 | 1 to 10 | 50 to 100 | 1 to 10 | 100 to 500 | 10 to 50 | 1 to 10 | 1 to 10 | 10 to 50 | 0.5 to 1 | A (A represents 0% ≤ substrate protein remaining % ≤ 50%) |
| O=C1CCC(N2Cc3cc(CN4CCN(C(c5cccc(F)c5)c5cccc(F)c5)CC4)ccc3C2=O)C(=O)N1 (stereo not drawn) [GT-03702, 3-(5-((4-(bis(3-fluorophenyl)methyl)piperazin-1-yl)methyl)-1-oxoisoindolin-2-yl)piperidine-2,6-dione] | A (A represents 0% ≤ substrate protein remaining % ≤ 50%) | A (A represents 0% ≤ substrate protein remaining % ≤ 50%) | 1 to 10 | < 1 | 10 to 50 | < 1 | 10 to 50 | 1 to 10 | < 1 | 1 to 10 | 1 to 10 | < 0.5 | A (A represents 0% ≤ substrate protein remaining % ≤ 50%) |
| O=C1CCC(N2Cc3c(ccc(CN4CCN(C(c5cccc(F)c5)c5cccc(F)c5)CC4)c3F)C2=O)C(=O)N1 (stereo not drawn) [GT-03703, 3-(5-((4-(bis(3-fluorophenyl)methyl)piperazin-1-yl)methyl)-4-fluoro-1-oxoisoindolin-2-yl)piperidine-2,6-dione] | A (A represents 0% ≤ substrate protein remaining % ≤ 50%) | A (A represents 0% ≤ substrate protein remaining % ≤ 50%) | 1 to 10 | 1 to 10 | 10 to 50 | < 1 | 10 to 50 | 1 to 10 | 1 to 10 | 1 to 10 | 1 to 10 | < 0.5 | A (A represents 0% ≤ substrate protein remaining % ≤ 50%) |
| O=C1CCC(N2Cc3c(ccc(CN4CCN(C(c5ccccc5)c5ccccn5)CC4)c3F)C2=O)C(=O)N1 (stereo not drawn) [GT-03832, 3-(4-fluoro-1-oxo-5-((4-(phenyl(pyridin-2-yl)methyl)piperazin-1-yl)methyl)isoindolin-2-yl)piperidine-2,6-dione] | A (A represents 0% ≤ substrate protein remaining % ≤ 50%) | B (B represents substrate protein remaining % > 50%) | 10 to 50 | 1 to 10 | 50 to 100 | 1 to 10 | 100 to 500 | 10 to 50 | 1 to 10 | 1 to 10 | 1 to 10 | 0.5 to 1 | A (A represents 0% ≤ substrate protein remaining % ≤ 50%) |
| O=C1CCC(N2Cc3cc(CN4CCN(C(c5ccccc5)c5ccccn5)CC4)c(F)cc3C2=O)C(=O)N1 (stereo not drawn) [GT-03833, 3-(6-fluoro-1-oxo-5-((4-(phenyl(pyridin-2-yl)methyl)piperazin-1-yl)methyl)isoindolin-2-yl)piperidine-2,6-dione] | A (A represents 0% ≤ substrate protein remaining % ≤ 50%) | B (B represents substrate protein remaining % > 50%) | 10 to 50 | 1 to 10 | 10 to 50 | < 1 | 10 to 50 | 1 to 10 | 1 to 10 | 1 to 10 | 1 to 10 | 1 to 1.9 | A (A represents 0% ≤ substrate protein remaining % ≤ 50%) |
| O=C1CCC(N2Cc3cc(CN4CCN(C(c5ccccc5)c5ccccn5)CC4)ccc3C2=O)C(=O)N1 (stereo not drawn) [GT-03835, 3-(1-oxo-5-((4-(phenyl(pyridin-2-yl)methyl)piperazin-1-yl)methyl)isoindolin-2-yl)piperidine-2,6-dione] | A (A represents 0% ≤ substrate protein remaining % ≤ 50%) | A (A represents 0% ≤ substrate protein remaining % ≤ 50%) | 10 to 50 | 1 to 10 | 50 to 100 | 1 to 10 | 100 to 500 | 1 to 10 | 1 to 10 | 1 to 10 | 1 to 10 | 0.5 to 1 | A (A represents 0% ≤ substrate protein remaining % ≤ 50%) |

Reference: US20250320193A1, “OXOISOINDOLINYL SUBSTITUTED PIPERIDINEDIONE DERIVATIVE AND USE THEREOF” (GLUETACS THERAPEUTICS (SHANGHAI) CO., LTD., priority 2022, published 2025)
